Experimental data from patent US20030157704A1, “Reagents and methods for identifying and modulating expression of genes regulated by CDK inhibitors” (priority 2001, published 2003).

Legend:
C8 cells = assay: Apoptosis assay in serum-starved C8 cells; format: cell-based, mouse; settings: addition of IPTG by itself
Description: (§1) To verify the induction of secreted mitogenic and anti-apoptotic factors by p21, conditioned media from IPTG-treated HT1080 p21-9 cells were tested to investigate whether they would have an effect on cell growth and apoptosis. In these experiments, conditioned media were prepared by plating 10^6 HT1080 p21-9 cells per 15 cm plate in the presence of DMEM/10% FCS. The next day, IPTG was added to a final concentration of 50 μM, and this media was replaced three days later with DMEM supplemented with 0.5% FCS and 50 μM IPTG. Two days later (days 3-5 of IPTG treatment), this conditioned media was collected and stored at 4° C. up to 15 days before use. Control media were prepared by adding IPTG-free DMEM/0.5% FCS to untreated cells grown to the same density as IPTG-treated cells and collecting the media two days thereafter.
The effect of this conditioned media on apoptosis was also determined. […] Apoptosis was analyzed by plating 3×10^5 C8 cells per 6-cm plate, and replacing the media on the following day with fresh media supplemented with 0.4% serum or with conditioned media (no fresh serum added). DNA content analysis and DAPI staining were carried out after 24 hrs and 48 hrs, and relative cell numbers were measured by methylene blue staining (Perry et al., 1992, Mutat. Res. 276: 189-197) after 48 hrs in low-serum media.

HT1080 p21-9 cells = assay: Labeling index (3H-thymidine) and mitotic index; format: cell-based, human
Description: Cell growth in the presence of IPTG was assayed in three ways: measuring ^3H-thymidine incorporation (termed the “labeling index”); observing the number of mitotic cells in the culture by microscopy (termed the “mitotic index”) and determining the distribution of the culture cells in different portions of the cell cycle (termed the “cell cycle distribution”).
^3H-thymidine incorporation assays were performed substantially as described by Dimri et al. (1995, Proc. Natl. Acad. Sci. USA 92: 9363-9367). Cells were cultured in the presence of ^3H-thymidine for 3 h, and then analyzed by autoradiography. DNA replication was determined by autoradiography ceased entirely by 9 hours after addition of IPTG to the culture media. The mitotic index was determined by observing cells microscopically and calculating the number of cells in mitosis after staining with 5 μg/mL 4,6-diamino-2-phenylindole (DAPI), and images were collected using a Leica DMIRB fluorescence microscope and Vaytek (Fairfield, Iowa) imaging system. Microscopically-detectable mitotic cells disappeared from these cultures by 14 hrs of IPTG treatment.

HS 15.T cells = assay: Mitogenic activity assay, 3H-thymidine incorporation; format: cell-based, human; settings: 60 hr in media then 24 hrs 3H-thymidine
Description: as §1
The slow-growing human fibrosarcoma cell line HS 15.T was used to detect mitogenic activity in these conditioned media. For mitogenic activity assays, both types of conditioned media, as well as fresh media and 1:1 mixtures of conditioned media and fresh media were used to test mitogenic activity. In these experiments, the conditioned media were supplemented with 1% or 2% FCS. […] Cells were then collected and their ^3H-thymidine incorporation determined as described by Mosca et al. (1992, Mol. Cell. Biol. 12: 4375-4383).

Q: Which “apoptosis in C8 cells” value (C8 cells) does the source give for `CC(C)S[C@@H]1O[C@H](CO)[C@H](O)[C@H](O)[C@H]1O` [IPTG, isopropyl-β-thiogalactoside] here?
A: no effect

Q: And the “time of IPTG treatment by which mitotic cells disappeared” value (HT1080 p21-9 cells; DAPI staining, microscopy)?
A: ≤ 14 h

Q: And the “time after addition of IPTG by which DNA replication ceased entirely” value (HT1080 p21-9 cells; autoradiography of 3H-thymidine incorporation)?
A: ≤ 9 h

Q: What about the 3H-thymidine incorporation (HS 15.T cells) of the same molecule?
A: no effect
